Test results: patent US9057727B2, “Screening methods using G-protein coupled receptors and related compositions” (The General Hospital Corporation, priority 2007, dated 2015)
Read-outs that look alike come from different tables or passages of the source. Square brackets hold non-standard residues; d marks the D form. Ends that are not written are not given here. Peptide text beside a SMILES is read from it. hArg = N=C(N)NCCCC[C@H](N)C(=O)O; Aib = CC(C)(N)C(=O)O

Legend:
SaOS cells = assay: cAMP production in SaOS cells, dose-response; format: cell-based; conditions: Table 2; read-out: SaOS camp EC50
MC3T3-E1 cells = assay: cAMP in MC3T3-E1 cells, dose-response; format: cell-based
Description: In the 1-30 scaffold, Gly, Ser, Leu, Asn, Gln, Trp, Glu, and Lys were substituted at position 29; Gly, Ser, Leu, Asn, Asp, Trp, and Lys were substituted at position 30; and Ser, Leu, Asn, Val, Trp, Glu, and Lys were substituted at position 31. […] These peptides were tested for cAMP activity in MC3T3-E1 cells.

[1] = target: T1, human PTHR, G protein-coupled conformation (RG) (Homo sapiens, UniProt Q03431); assay: Competition binding to RG conformation of hPTHR (COS-7 membranes, GαsND, 125I-[Aib1,3,M]PTH(1-15) tracer)
T1 construct: expressed in transfected cells; host or cells: COS-7, transient (Fugene-6); membranes
T1 sequence (Q03431 27-593): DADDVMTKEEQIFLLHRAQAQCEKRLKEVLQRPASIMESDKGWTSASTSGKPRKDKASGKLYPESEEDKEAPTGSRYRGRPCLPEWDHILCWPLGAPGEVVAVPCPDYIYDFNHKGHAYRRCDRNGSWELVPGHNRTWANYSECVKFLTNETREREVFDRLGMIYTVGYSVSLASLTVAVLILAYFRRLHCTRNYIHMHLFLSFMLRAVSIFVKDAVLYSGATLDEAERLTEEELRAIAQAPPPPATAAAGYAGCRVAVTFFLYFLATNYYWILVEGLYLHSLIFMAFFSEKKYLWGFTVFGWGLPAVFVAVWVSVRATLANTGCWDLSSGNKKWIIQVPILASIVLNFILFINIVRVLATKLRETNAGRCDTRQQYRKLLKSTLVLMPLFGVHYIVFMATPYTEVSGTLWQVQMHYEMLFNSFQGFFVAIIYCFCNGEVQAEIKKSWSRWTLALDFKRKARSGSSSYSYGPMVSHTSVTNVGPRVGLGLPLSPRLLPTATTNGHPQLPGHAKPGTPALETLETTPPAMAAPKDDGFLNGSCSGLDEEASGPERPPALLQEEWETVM

[2] = target: T2, human PTHR, G protein-uncoupled conformation (R^0) (Homo sapiens, UniProt Q03431); assay: Competition binding to R0 conformation of hPTHR (COS-7 membranes, GTPγS, 125I-PTH(1-34) tracer)
T2 construct: expressed in transfected cells; host or cells: COS-7, transient (Fugene-6)
T2 sequence (Q03431 27-593): T1 sequence (Q03431 27-593)
Procedure, shortened: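 Bound versus free radioligand was separated by vacuum filtration after 90 min incubation of COS-7 hPTHR membranes (20-100 μg/mL) with tracer and competing peptides. Non-specific binding came from a saturating unlabeled analog.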

[3] = Blood ionized calcium in C57BL/6 mice after intravenous injection; format: in vivo; conditions: 5 nmol/kg i.v.
Description: FIGS. 29A and 29B are graphs showing the effect of R^0 and RG selective PTH analogs on plasma cAMP and calcium in mice. FIGS. 29A and 29B show plasma cAMP concentrations in mice (C57BL/6, males, 3 months) that were administered either vehicle, rPTH(1-34) (SEQ ID NO:130), M-PTH(1-34) (M=A^1,Aib^3,Q^10,Har^11,A^12,W^14,R^19) (SEQ ID NO:12), or E^18,A^22,L^25,K^26-(EALK)-PTHrP(1-30) (SEQ ID NO:90) (5 nmol/kg; n=7 for cAMP, n=4 for calcium) intravenously. […] In the calcium experiment, blood was withdrawn before, and 1, 2, 4 and 6 hours after injection, and ionized calcium was measured using a Ca^++/pH analyzer.
We also characterized the effects of the EALK-PTHrP(1-30) peptide on cAMP production. Three month old male C57BL/6 mice were intravenously injected with either vehicle, rPTH(1-34), M-PTH(1-34) (M=A^1,Aib^3,Q^10,Har^11,A^12,W^14,R^19) or E^18,A^22,L^25,K^26-(EALK)-PTHrP(1-30) (5 nmol/kg). In the cAMP experiment (FIG. 29A), blood was withdrawn 10 minutes after injection and plasma level of cAMP was measured by RIA. In the calcium experiment (FIG. 29B), blood was withdrawn prior to injection and 1, 2, 4, and 6 hours after injection. Ionized calcium was measured using a Ca^++/pH analyzer.

[4] = Bone turnover markers (PINP, osteocalcin, CTX) in mice, daily treatment; format: in vivo; conditions: 5 nmol/kg i.v. daily, days 6 and 13
Description: FIGS. 30A-30F are graphs showing the effects of PTH analogs on plasma bone markers in mice. Mice (C57BL/6, males, 3 months) were intravenously injected daily with either vehicle, rPTH(1-34) (SEQ ID NO:130), M-PTH(1-34) (SEQ ID NO:12), or (EALK)-PTHrP(1-30) (SEQ ID NO:90) (5 nmol/kg; n=7 group) for 14 days. Markers of bone turnover (PINP, CTX and osteocalcin) were assessed by ELISA in blood at day 6 (FIGS. 30A, 30C, and 30E, respectively) and 13 (FIGS. 30B, 30D, and 30F, respectively).
A second set of experiments was performed in which mice received 5 nmol/kg intravenous daily treatment with rPTH(1-34), M-PTH(1-34), or EALK-PTHrP(1-30) for 14 days. Blood samples were taken at days 6 and 13, and markers of bone turnover (PINP, osteocalcin and CTX) were assessed by ELISA.

[5] = Bone structural parameters after two-week daily treatment in mice (Piximus, microCT); format: in vivo
Description: FIG. 31 is a set of images showing the effects of two-week daily treatment of R^0 and RG ligands on trabecular and cortical bone structure in mice. Mice (C57BL/6, males, 3 months) were treated (i.v.) with either vehicle, rPTH(1-34) (SEQ ID NO:130), M-PTH(1-34) (SEQ ID NO:12), or E^18,A^22,L^25,K^26 (EALK)PTHrP(1-30) (SEQ ID NO:90) (5 nmol/kg; n=7 group), daily for 14 days, and femurs were analyzed by μCT.
As described above, mice were treated intravenously) with either vehicle, rPTH(1-34), M-PTH(1-34), or EALK-PTHrP(1-30) daily for 14 days.

hPTHR [6] = target: T3, hPTHR (Homo sapiens, UniProt Q03431); assay: cAMP dose-response in HKRK-B64 cells; format: cell-based; set-up: expressed in transfected cells; conditions: basal 5.2 ± 0.9 pmole/well not subtracted
T3 sequence (Q03431 27-593): T1 sequence (Q03431 27-593)
Description: Cells were treated for 30 minutes at room temperature with varying concentrations of ligand in the presence of IBMX. […] Data are means (±s.e.m.) of four (FIG. 7A) or five (FIG. 7B) experiments, each performed in duplicate.
Following treatment of cells with a ligand, the intracellular cAMP levels were measured by radioimmuno assay, as described (Shimizu et al., J. Biol. Chem. 276:49003-49012 (2001)).

hPTHR [7] = target: T3, hPTHR; assay: Inositol phosphate production in COS-7/hPTHR cells; format: cell-based; set-up: expressed in transfected cells; host or cells: COS-7, transient (Fugene-6); conditions: basal 330 ± 8 cpm/well not subtracted
Description: The capacity of the ligands to stimulate the production of inositol phosphates (IPs) was assessed in COS-7 cells transiently transfected with the hPTHR (FIG. 7B). Cells were treated for 30 minutes at room temperature with varying concentrations of ligand. […] Data are means (±s.e.m.) of four (FIG. 7A) or five (FIG. 7B) experiments, each performed in duplicate.
The stimulation of intracellular inositol phosphates (IPs) was measured in transiently transfected COS-7 cells that were pre-labeled (16 hours) with ^3H-myo-D-inositol (2 μCi/ml). Cells were treated with ligand in DMEM containing fetal bovine serum (10%) and LiCl (30 mM) for 30 minutes; cells were lysed with ice cold trichloro acetic acid (5%) and IPs were extracted from the acid-lysates by ion-exchange filtration, as described (Shimizu et al., J. Biol. Chem. 276:49003-49012 (2001)).

[8] = Calcemic action in normal rats (blood ionized calcium); format: in vivo; conditions: normal and TPTX rats
Procedure, shortened: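 Corrected (pH 7.4) blood ionized calcium tracked from tail-vein samples before and 1, 2, 4 or 6 h after dosing. Peptides diluted in phosphate-citrate/NaCl/Tween 80 buffer, pH 5.0, given i.v. at 1 ml/kg to groups of six 8-week-old female SD-IGS rats; means ± SE versus vehicle.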

[9] = Piximus, mice, 5 nmol/kg i.v. daily 14 days
[10] = mice, 5 nmol/kg i.v. daily 14 days

Compound	ionized calcium response, in words [3]	effect on bone turnover markers, in words [4]	Lumbar Spine BMD [5, 9]	effect on trabecular/cortical bone and BMD, in words [5, 10]	Conn-Dens. ([5]; microCT distal femur)	Cort Th. ([5]; microCT distal femur)	Tb · N ([5]; microCT distal femur)	Tb · Th ([5]; microCT distal femur)	TbSp ([5]; microCT distal femur)	TrabecularBV/TV ([5]; microCT distal femur)	BA ([5]; microCT mid femur)	BA/TA ([5]; microCT mid femur)	Cort Th. ([5]; microCT mid femur)	MA ([5]; microCT mid femur)	TA ([5]; microCT mid femur)	other results
CC[C@H](C)[C@H](NC(=O)[C@H](CC(C)C)NC(=O)[C@H](CCCCN)NC(=O)[C@H](CC(C)C)NC(=O)[C@H](CC(C)C)NC(=O)[C@H](Cc1ccccc1)NC(=O)[C@H](C)NC(=O)[C@H](CCCNC(=N)N)NC(=O)[C@H](CCCNC(=N)N)NC(=O)[C@H](CCCNC(=N)N)NC(=O)[C@H](CCC(=O)O)NC(=O)[C@H](CC(=O)O)NC(=O)[C@H](CCC(N)=O)NC(=O)[C@@H](NC(=O)[C@H](CO)NC(=O)[C@H](CCCCN)NC(=O)CNC(=O)[C@H](CCCCN)NC(=O)[C@H](CC(=O)O)NC(=O)[C@H](Cc1c[nH]cn1)NC(=O)[C@H](CC(C)C)NC(=O)[C@H](CC(C)C)NC(=O)[C@H](CCC(N)=O)NC(=O)[C@H](Cc1c[nH]cn1)NC(=O)[C@H](CCC(=O)O)NC(=O)[C@H](CO)NC(=O)[C@@H](NC(=O)[C@H](C)N)C(C)C)[C@@H](C)CC)C(=O)N[C@@H](C)C(=O)N[C@@H](CCC(=O)O)C(N)=O [E18, A22, L25, K26-PTHrP(1-30)NH, E18,A22,L25,K26-PTHrP(1-30)] (H-AVSEHQLLHDKGKSIQDERRRAFLLKLIAE-NH2; N-terminus assumed)	similar, if not lower, than that of PTH(1-34)	increased bone formation markers, with relatively smaller effects on the resorption marker	0.0464 ± 0.0002 g/cm^2	increased cortical bone thickness with significance in the distal femur	117 ± 9 1/mm^3	238 ± 9 μm	4.13 ± 0.16 1/mm	57.8 ± 2.1 μm	238 ± 10 μm	16.5 ± 1.3%	0.821 ± 0.027 mm^2	40.3 ± 0.6%	176 ± 4 μm	1.21 ± 0.03 mm^2	2.03 ± 0.06 mm^2	EC50 (SaOS cells): 0.063 nM; EC50 (MC3T3-E1 cells; Table 2, read-out: MC3T3-E1 cAMP EC50): 0.059 nM; EC50 (MC3T3-E1 cells; Table 3, read-out: dose-response cAMP in MC3T3-E1 (EC50)): 0.059 nM; IC50 ([1]; Table 2, read-out: RG binding affinity hPTHR IC50): 0.08 nM; IC50 ([1]; Table 4, human PTH1 receptor, read-out: RG binding IC50): 0.08 nM; R0/RG selectivity ([2]; Table 2, hPTHR): 11169; IC50 ([2]; Table 4, human PTH1 receptor, read-out: R0 binding IC50): 945 nM; R0/RG ratio ([2]; human PTH receptor on COS-7 cell membranes): 11813; Total Femur BMD [5, 9]: 0.620 ± 0.0003 g/cm^2
CCCC[C@H](NC(=O)[C@H](CCCNC(=N)N)NC(=O)[C@H](CCC(=O)O)NC(=O)[C@@H](NC(=O)[C@H](CO)NC(=O)[C@H](C)NC(=O)[C@H](CC(C)C)NC(=O)[C@H](Cc1c[nH]cn1)NC(=O)[C@H](CCCCN)NC(=O)CNC(=O)[C@H](CC(C)C)NC(=O)[C@H](CC(N)=O)NC(=O)[C@H](Cc1c[nH]cn1)NC(=O)[C@H](CCCC)NC(=O)[C@H](CC(C)C)NC(=O)[C@H](CCC(N)=O)NC(=O)[C@@H](NC(=O)[C@H](CCC(=O)O)NC(=O)[C@H](CO)NC(=O)[C@@H](NC(=O)[C@H](C)N)C(C)C)[C@@H](C)CC)C(C)C)C(=O)N[C@@H](CCC(N)=O)C(=O)N[C@@H](Cc1c[nH]c2ccccc12)C(=O)N[C@@H](CC(C)C)C(=O)N[C@@H](CCCNC(=N)N)C(=O)N[C@@H](CCCCN)C(=O)N[C@@H](CCCCN)C(=O)N[C@@H](CC(C)C)C(=O)N[C@@H](CCC(N)=O)C(=O)N[C@@H](CC(=O)O)C(=O)N[C@H](C(=O)N[C@@H](Cc1c[nH]cn1)C(=O)N[C@@H](CC(N)=O)C(=O)N[C@@H](Cc1ccc(O)cc1)C(N)=O)C(C)C [[Nle^8,21,Tyr^34]rPTH(1-34)NH2, [Nle^8,21,Tyr^34]rat(r)PTH(1-34)NH2, reference compound]																IC50 ([1]; Table 5, read-out: IC50 RG, ^125I-PTH(1-15) + GsND): 0.86 ± 0.24 nM; IC50 ([2]; IC50 RR^0, ^125I-PTH(1-34) + GTPγS, Table 5): 4.2 ± 0.5 nM; R0:RG ([2]; Table 5, fold weaker affinity for R0 than RG): 5; cAMP in HKRK-B64 cells Emax (hPTHR [6]): 55 ± 12 picomole/well; IP in COS-7/hPTHR cells Emax (hPTHR [7]): 2,407 ± 138 cpm/well
Ala^1,Aib^3-[M]PTH(1-34) (AV[Aib]EIQLMHQ[hArg]AKWLNSMRRVEWLRKKLQDVHNF) [M-PTH(1-34), M=A1,Aib3,Q10,Har11,A12,W14,R19]	markedly more robust and more sustained than that of PTH(1-34)	strongly induced increases in markers of both bone formation	0.0524 ± 0.0002 g/cm^2	robustly increased trabecular bone, but also detectably diminished cortical bone	263 ± 25 1/mm^3	166 ± 6 μm	5.22 ± 0.34 1/mm	71.5 ± 1.8 μm	208 ± 17 μm	35.0 ± 3.0%	0.837 ± 0.022 mm^2	40.0 ± 0.8%	151 ± 3 μm	1.26 ± 0.04 mm^2	2.10 ± 0.06 mm^2	calcemic action compared with control peptides, in words [8]: higher calcemic actions than did PTH(1-34)
